Assay results published in publication PMC7668422 (Anesthesia and analgesia, 2020).

Legend:
KOR = settings: no reference given; cited from earlier work
human KOR [1] = target: T1, human KOR (Homo sapiens, UniProt P41145); type: cell-based
Target sequence in this assay (P41145 whole entry): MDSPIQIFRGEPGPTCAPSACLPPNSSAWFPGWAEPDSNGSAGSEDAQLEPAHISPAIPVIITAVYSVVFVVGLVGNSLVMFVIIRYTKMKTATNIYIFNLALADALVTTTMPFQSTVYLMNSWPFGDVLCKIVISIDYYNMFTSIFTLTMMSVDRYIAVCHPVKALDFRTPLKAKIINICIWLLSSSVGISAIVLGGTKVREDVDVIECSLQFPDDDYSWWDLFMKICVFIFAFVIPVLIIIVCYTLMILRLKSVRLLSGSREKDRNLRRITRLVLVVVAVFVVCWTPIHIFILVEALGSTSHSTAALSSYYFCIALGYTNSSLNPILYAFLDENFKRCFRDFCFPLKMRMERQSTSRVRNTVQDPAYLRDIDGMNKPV

[2] = cited from earlier work
μ-opioid receptor (MOR) [3] = target: T2, μ-opioid receptor (MOR) (Homo sapiens, UniProt P35372); assay: Affinity for the μ-opioid receptor; type: binding; settings: mean ± SD; no method described
[4] = target: mKOR-tdTomato fusion protein in Neuro2A cells (Mus musculus, UniProt P33534); assay: KOR internalization in N2A-mKOR-tdT cells, fluorescence microscopy; type: cell-based
κ-opioid receptor (KOR) = κ-opioid receptor (KOR) (Homo sapiens, UniProt P41145); assay: biochemical; type: binding
μ-opioid receptor (MOR) [5] = target: T2, μ-opioid receptor (MOR); settings: cited from earlier work
human KOR [6] = target: T1, human KOR; assay: biochemical; type: biochemical
Target sequence in this assay (P41145 whole entry): as above
Target sequence in this assay (P63096 2-354 partner limits assumed): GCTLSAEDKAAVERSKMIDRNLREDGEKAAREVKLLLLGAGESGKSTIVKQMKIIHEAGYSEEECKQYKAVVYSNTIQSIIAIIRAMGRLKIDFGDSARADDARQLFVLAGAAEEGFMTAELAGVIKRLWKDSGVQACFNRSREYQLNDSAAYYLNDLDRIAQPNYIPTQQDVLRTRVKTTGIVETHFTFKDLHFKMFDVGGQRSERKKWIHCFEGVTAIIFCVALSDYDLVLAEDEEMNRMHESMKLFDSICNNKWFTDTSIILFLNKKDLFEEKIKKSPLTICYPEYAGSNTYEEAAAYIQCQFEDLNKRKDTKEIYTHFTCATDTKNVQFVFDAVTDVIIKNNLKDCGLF
Target sequence in this assay (P62873 2-340 partner limits assumed): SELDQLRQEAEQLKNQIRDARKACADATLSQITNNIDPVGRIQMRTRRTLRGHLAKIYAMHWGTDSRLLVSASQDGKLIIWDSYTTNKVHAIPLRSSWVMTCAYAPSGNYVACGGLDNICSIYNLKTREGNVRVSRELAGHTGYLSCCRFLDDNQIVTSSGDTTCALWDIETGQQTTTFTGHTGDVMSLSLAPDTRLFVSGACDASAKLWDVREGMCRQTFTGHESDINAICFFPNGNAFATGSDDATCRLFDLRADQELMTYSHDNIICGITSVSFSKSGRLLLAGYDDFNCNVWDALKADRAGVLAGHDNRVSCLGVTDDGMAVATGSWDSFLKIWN
Target sequence in this assay (P59768 2-68 partner limits assumed): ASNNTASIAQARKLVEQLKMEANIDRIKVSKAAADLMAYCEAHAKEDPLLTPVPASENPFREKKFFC

Chain of κ-opioid receptor (KOR) (P41145 whole entry): as the sequence (P41145 whole entry) above
T2 sequence (P35372 whole entry, species assumed, the tested form may be a part): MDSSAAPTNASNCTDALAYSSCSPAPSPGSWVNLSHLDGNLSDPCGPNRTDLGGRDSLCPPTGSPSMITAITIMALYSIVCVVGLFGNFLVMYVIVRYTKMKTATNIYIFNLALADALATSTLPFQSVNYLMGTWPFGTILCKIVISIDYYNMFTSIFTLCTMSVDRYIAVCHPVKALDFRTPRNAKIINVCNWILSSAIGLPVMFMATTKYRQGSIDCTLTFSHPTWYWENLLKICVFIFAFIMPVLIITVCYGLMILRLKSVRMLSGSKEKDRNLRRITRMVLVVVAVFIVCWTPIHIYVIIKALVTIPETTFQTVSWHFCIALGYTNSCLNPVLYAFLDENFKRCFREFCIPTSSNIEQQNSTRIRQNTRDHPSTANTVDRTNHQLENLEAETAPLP
Chain of mKOR-tdTomato fusion protein in Neuro2A cells (P33534 whole entry, the tested form may be a part): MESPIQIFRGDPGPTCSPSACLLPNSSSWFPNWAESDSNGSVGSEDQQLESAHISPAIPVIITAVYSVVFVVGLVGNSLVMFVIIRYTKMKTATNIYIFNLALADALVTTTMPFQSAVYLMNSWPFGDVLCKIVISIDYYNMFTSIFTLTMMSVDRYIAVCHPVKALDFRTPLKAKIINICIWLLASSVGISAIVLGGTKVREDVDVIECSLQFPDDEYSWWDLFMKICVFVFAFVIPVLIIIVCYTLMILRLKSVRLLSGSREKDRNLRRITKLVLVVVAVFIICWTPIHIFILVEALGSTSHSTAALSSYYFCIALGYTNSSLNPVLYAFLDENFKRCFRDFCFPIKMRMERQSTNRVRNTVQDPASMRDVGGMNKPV

CC(C)[C@@H](CN1CC[C@@](C)(c2cccc(O)c2)[C@@H](C)C1)NC(=O)[C@H]1Cc2ccc(O)cc2CN1 [JDTic]
agonistic activity at KOR (KOR): no agonistic activity

Oc1ccc2c(c1)[C@@]13CCCC[C@@]1(O)[C@@H](C2)N(CC1CCC1)CC3 [butorphanol]
agonist character, β-arrestin recruitment pathway (human KOR [1]): full agonist
analgesic potency relative to morphine ([2]; clinical trial for perioperative pain management): ~6 times
potency relative to morphine ([2]; discussion statement, no reference given): 5–7 fold
affinity for the μ-opioid receptor (μ-opioid receptor (MOR) [3]): 2.4 ± 1.2 nM
KOR internalization ([4]; butorphanol 0.1 μM to 8 μM, from 5 min): KOR internalization was observed
Kd (κ-opioid receptor (KOR)): 0.1 ± 0.02 nM
Ki (κ-opioid receptor (KOR)): 0.1 ± 0.02 nM
affinity for KOR relative to μ-opioid receptor (κ-opioid receptor (KOR)): about twenty-fold
agonist character at MOR (μ-opioid receptor (MOR) [5]): partial μ-opioid receptor (MOR) agonist
EC50 (human KOR [6]): 2.8 nM
agonist character, G protein activation pathway (human KOR [6]): partial, high affinity agonist
maximal G protein activation relative to salvinorin A (human KOR [6]): about 50%

C[C@@]12CCCCC[C@@H](Cc3ccc(O)cc31)[C@@H]2N [dezocine]
effect on butorphanol-induced KOR internalization ([4]; 2 μM dezocine co-incubated with 0.4 μM butorphanol for 30 min): abolish the KOR internalization
Ki (κ-opioid receptor (KOR)): 56 ± 2 nM

COC(=O)[C@@H]1C[C@H](OC(C)=O)C(=O)[C@H]2[C@@]1(C)CC[C@H]1C(=O)O[C@H](c3ccoc3)C[C@]21C [salvinorin A]
agonist character, G protein activation pathway (human KOR [6]): full agonist
concentration giving full activation of the receptor (human KOR [6]): above 1 μM
